In patent US6528677B1, “Selective retinoid agonists” (Hoffmann-La Roche Inc., priority 1999, dated 2003):

How the values were obtained:
[1] = test system: elastase-induced emphysema in rats; assay: Repair of alveoli in elastase-induced emphysema (rat model); type: in vivo, male Sprague Dawley rats; conditions: starting 21 days post elastase injury, morphometric analysis of lung sections
Method: Effects of RAR Selective Retinoids on Repair of Alveoli in Elastase-induced Emphysema
RAR selective agonists were evaluated for its effects on alveolar repair in the rat model of elastase-induced emphysema in rats (D. Massaro et al. Nature Medicine (1997, 3, 675). Animals were divided into treatment groups of approximately eight. Lung inflammation and alveolar damage was induced in male Sprague Dawley rats by a single installation of pancreatic elastase(porcine derived, Calbiochem) 2 U/gram body mass. Three weeks post injury all-trans retinoic acid or RAR agonist was dissolved in dimethylsulfoxide (20 mg/ml) and stored at −20 C. Fresh working stocks were prepared fresh daily by dilution in PBS to a final concentration of 2 mg/ml. Animals were dosed once daily with the retinoid by intraperitoneal injection or orally, starting 21 days post injury. Control groups were challenged with elastase and 21 days later treated with Vehicle (DMSO/PBS) for 14 days. Animals were sacrificed 24 hours after the last dose of by exsanguination under deep anesthesia.
The lungs were inflated with 10% neutral buffered formalin by intratracheal instillation at a constant rate (1 ml/gram body mass/min). The lung was excised and immersed in fixative for 24 hours prior to processing. Standard methods were used to prepare 5 um paraffin sections. Sections were stained with Hematoxylin and Eosin (H%E). Computerized Morphometric analysis was performed to determine the average alveolar size and alveolar number (Table 1).

melting point	SMILES	also measured
156 to 157 °C	CCCC1(C(=O)Oc2ccc(C(=O)O)cc2)CC2=C(C1)C(C)(C)CCC2(C)C [Example 3.5, 4,4,7,7-Tetramethyl-2-propyl-2,3,4,5,6,7-hexahydro-1H-indene-2-carboxylic acid 4-carboxy-phenyl ester]	–
172 to 173 °C	CCCCC1(C(=O)Oc2ccc(C(=O)O)cc2)CC2=C(C1)C(C)(C)CCC2(C)C [Example 3.6, 2-Butyl-4,4,7,7-tetramethyl-2,3,4,5,6,7-hexahydro-1H-indene-2-carboxylic acid 4-carboxy-phenyl ester]	–
194 to 196 °C	CC(C)CC1(C(=O)Oc2ccc(C(=O)O)cc2)CC2=C(C1)C(C)(C)CCC2(C)C [Example 3.7, 2-Isobutyl-4,4,7,7-tetramethyl-2,3,4,5,6,7-hexahydro-1H-indene-2-carboxylic acid 4-carboxy-phenyl ester]	–
149 to 150 °C	CCCCCCC1(C(=O)Oc2ccc(C(=O)O)cc2)CC2=C(C1)C(C)(C)CCC2(C)C [Example 3.8, 2-Hexyl-4,4,7,7-tetramethyl-2,3,4,5,6,7-hexahydro-1H-indene-2-carboxylic acid 4-carboxy-phenyl ester]	–
182 to 183 °C	CC1(C)CCC(C)(C)C2=C1CC(CCc1ccccc1)(C(=O)Oc1ccc(C(=O)O)cc1)C2 [Example 3.9, 4,4,7,7-Tetramethyl-2-phenethyl-2,3,4,5,6,7-hexahydro-1H-indene-2-carboxylic acid 4-carboxy-phenyl ester]	–

The next lines start with the compound.

SMILES	melting point	also measured
CC1(C)CCC(C)(C)C2=C1CC(C)(C(=O)Oc1ccc(C(=O)O)cc1)C2 [B, 2,4,4,7,7-pentamethyl-2,3,4,5,6,7-hexahydro-1H-indene-2-carboxylic acid 4-carboxy-phenyl ester]	205 to 206 °C	–
CCC1(C(=O)Oc2ccc(C(=O)O)cc2)CC2=C(C1)C(C)(C)CCC2(C)C [C, 2-ethyl-4,4,7,7-tetramethyl-2,3,4,5,6,7-hexahydro-1H-indene-2-carboxylic acid 4-carboxy-phenyl ester]	175 to 176 °C	–
CC1(C)CCC(C)(C)C2=C1CC(Cc1ccccc1)(C(=O)Oc1ccc(C(=O)O)cc1)C2 [E, 2-benzyl-4,4,7,7-tetramethyl-2,3,4,5,6,7-hexahydro-1H-indene-2-carboxylic acid 4-carboxy-phenyl ester]	183 to 184 °C	–
CCCCCC1(C(=O)Oc2ccc(C(=O)O)cc2)CC2=C(C1)C(C)(C)CCC2(C)C [compound D, 4,4,7,7-tetramethyl-2-pentyl-2,3,4,5,6,7-hexahydro-1H-indene-2-carboxylic acid 4-carboxy-phenyl ester]	156 to 158 °C	% repair area ([1]; 0.3 mg/kg p.o. once daily): 11.1%; % repair area ([1]; 0.5 mg/kg i.p. once daily): 54%; % repair area ([1]; 1 mg/kg p.o. once daily): 44%; % repair area ([1]; 3 mg/kg p.o. once daily): 48.6%
